Reference: ChEMBL document CHEMBL1201862, “PubChem BioAssay data set” (2004)
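Method: 48-hour compound exposure of cells in 96-well plates, five concentrations, linear interpolation of endpoints. GI50: concentration for 50% inhibition of growth.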 Calls of active or inactive are those of the source. Cut-off read from the data, not from the text of the source: active = GI50 up to about 1.1 µM and inactive = higher.

Columns and labels:
Assay in all cases: NCI-60 cell line screen, 48 h
IGROV-1 = system: IGROV-1
KM12 = system: KM12
SK-OV-3 = system: SK-OV-3
SK-MEL-2 = system: SK-MEL-2
OVCAR-3 = system: OVCAR-3
NCI-H460 = system: NCI-H460
UO-31 = system: UO-31
HCT-116 = system: HCT-116
NCI-H226 = system: NCI-H226
HL-60 = system: HL-60
T47D = system: T47D
SN12C = system: SN12C
SNB-19 = system: SNB-19
TK-10 = system: TK-10
UACC-257 = system: UACC-257
HOP-62 = system: HOP-62
DU-145 = system: DU-145
U-251 = system: U-251
MDA-MB-231 = system: MDA-MB-231
PC-3 = system: PC-3
RXF 393 = system: RXF 393
OVCAR-4 = system: OVCAR-4
MDA-N = system: MDA-N
OVCAR-5 = system: OVCAR-5
CCRF-CEM = system: CCRF-CEM
CAKI-1 = system: CAKI-1
COLO 205 = system: COLO 205
SNB-75 = system: SNB-75
HCC 2998 = system: HCC 2998
ACHN = system: ACHN
MOLT-4 = system: MOLT-4
786-0 = system: 786-0
BT-549 = system: BT-549
UACC-62 = system: UACC-62
M14 = system: M14
SF-268 = system: SF-268
SW-620 = system: SW-620
Malme-3M = system: Malme-3M
SF-539 = system: SF-539
MCF7 = system: MCF7
SF-295 = system: SF-295
NCI-H522 = system: NCI-H522
Hs-578T = system: Hs-578T
HCT-15 = system: HCT-15
SK-MEL-5 = system: SK-MEL-5
MDA-MB-435 = system: MDA-MB-435
NCI-H23 = system: NCI-H23
K562 = system: K562
A549 = system: A549
EKVX = system: EKVX
OVCAR-8 = system: OVCAR-8
SK-MEL-28 = system: SK-MEL-28
HOP-92 = system: HOP-92
SR = system: SR
HT-29 = system: HT-29
NCI/ADR-RES = system: NCI/ADR-RES
RPMI-8226 = system: RPMI-8226

Measured: GI50

CC(=O)OCC1OC(c2c(OC(C)=O)cc(C)c3c(=O)cc(/C(C(C)=O)=C(\C)O)oc23)C(OC(C)=O)C(OC(C)=O)C1OC(C)=O (configuration not stated)
inactive: IGROV-1 > 100 µM | KM12 > 100 µM | SK-OV-3 > 100 µM | SK-MEL-2 > 100 µM | OVCAR-3 > 100 µM | NCI-H460 > 100 µM | UO-31 > 100 µM | HCT-116 > 100 µM | NCI-H226 > 100 µM | HL-60 > 100 µM | T47D > 100 µM | SN12C > 100 µM | SNB-19 > 100 µM | TK-10 > 100 µM | UACC-257 > 100 µM | HOP-62 > 100 µM | DU-145 > 100 µM | U-251 > 100 µM | MDA-MB-231 > 100 µM | PC-3 > 100 µM | RXF 393 > 100 µM | OVCAR-4 > 100 µM | MDA-N > 100 µM | OVCAR-5 > 100 µM | CCRF-CEM > 100 µM | CAKI-1 > 100 µM | COLO 205 > 100 µM | SNB-75 49.5 µM | HCC 2998 > 100 µM | ACHN > 100 µM | MOLT-4 > 100 µM | 786-0 > 100 µM | BT-549 > 100 µM | UACC-62 > 100 µM | M14 > 100 µM | SF-268 87.7 µM | SW-620 > 100 µM | Malme-3M > 100 µM | SF-539 > 100 µM | MCF7 > 100 µM | SF-295 > 100 µM | NCI-H522 > 100 µM | Hs-578T 84.9 µM | SK-MEL-5 > 100 µM | MDA-MB-435 > 100 µM | NCI-H23 > 100 µM | K562 > 100 µM | A549 > 100 µM | EKVX > 100 µM | OVCAR-8 > 100 µM | SK-MEL-28 > 100 µM | HOP-92 > 100 µM | SR > 100 µM | HT-29 > 100 µM | NCI/ADR-RES > 100 µM | RPMI-8226 > 100 µM
> 100 µM: HCT-15
